Results published in patent publication US20250339408A1, “TREATMENT AND PREVENTION OF BASAL CELL CARCINOMA WITH TOPICAL COMPOSITION COMPRISING PATIDEGIB” (Sol-Gel Technologies Ltd., priority 2023, published 2025).

Legend:
[1] = system: basal cell carcinoma (BCC) lesions on the face; assay: Randomized, double-blind, vehicle-controlled study of Patidegib Topical Gel, 2% in Gorlin syndrome participants, ITT, all types of subjects (Example 3); type: in vivo, human; details: PTCH1 mutation not required, gel 2% twice daily to face
Description: (§1) A randomized, double-blind, stratified, vehicle-controlled study was done, measuring the efficacy and safety of Patidegib Topical Gel, 2%, applied topically twice daily to the face of adult participants with Gorlin syndrome. The Participants were required to apply the investigational product for 12 months. The primary endpoint is a comparison between the two treatment arms of the number of new BCCs that develop over the 12 month period.
Participants will be randomized to receive Patidegib Topical Gel, 2%. The Patidegib Topical Gel, 2% will be dispensed to participants at each study visit and applied topically twice daily to the face.
Participants will be randomized to receive Vehicle. The Patidegib Topical Gel, Vehicle will be dispensed to participants at each study visit and applied topically twice daily to the face.
• 1. The participant must be age at least 18 years of age at the Screening Visit. • 2. The participant must provide written informed consent prior to any study procedures. • 3. The participant must meet diagnostic criteria for the basal cell nevus (Gorlin) syndrome including major criterion #3a plus 1 additional major criterion or plus 2 additional minor criteria listed below.
• a. >2 histologically confirmed BCCs or 1 for participant under age 20. • b. Odontogenic keratocysts of the jaw confirmed histologically. • c. ≥3 palmar and/or plantar pits seen at the Screening Visit. • d. Bilamellar calcification of the falx cerebri present at less than 20 years of age. • e. Fused, bifid, or markedly splayed ribs. • f. First degree relative with Gorlin syndrome. • g. Patched protein 1 (PTCH1) mutation predicted to be of functional significance in normal tissue.
• h. Macrocephaly. • i. Congenital malformations including frontal bossing, cleft lip or palate, “coarse face”, moderate to severe hypertelorism. • j. Skeletal abnormalities detectable clinically: Sprengel deformity, marked pectus deformity, or marked finger syndactyly. • k. Skeletal abnormalities detectable radiographically: bridging of the sella turcica; vertebral abnormalities such as hemivertebrae, fusion or elongation of the vertebral bodies; modeling defects of the hands and feet; flame shaped lucencies of the hands or feet. • l. Ovarian fibroma. • m. Medulloblastoma (Modification of criteria of V Kimonis et al Am J Med Genet 69: 299-308, 1997). • 4. The participant must have 10 (with at least 3 on the face) clinically typical BCCs present within 24 months prior to Randomization (Baseline/Day 1). Additionally, the subject must have at least 2 BCCs with longest diameter <5 mm present on the face prior to Randomization (Baseline/Day 1). • 5. […] The participant is willing for all facial BCCs to be evaluated and treatment recommendations made only by the Investigator. • 10. […]

[2] = system: basal cell carcinoma (BCC) lesions on the face; assay: Post hoc analysis of the Example 3 trial: Gorlin patients without PTCH1 mutation (Example 4); type: in vivo, human; details: for Number of qualifying nSEBs, observed, Mean / Number of new BCCs excluding no longer suspicious BCCs, observed, Mean: Gorlin syndrome without PTCH1 mutation, gel 2% twice daily to face; for Number of qualifying nSEBs, observed, Mean: baseline total BCC lesions at least 10; for Number of new BCCs excluding no longer suspicious BCCs, observed, Mean: baseline total facial BCC lesions at least 10
Procedure: as §1
A post hoc analysis was performed on the results of the clinical trial of Example 3 to analyze the impact of Patidegib on patients without PTCH1 mutation.

CC1=C2C[C@H]3[C@@H](CC[C@@H]4C[C@H](NS(C)(=O)=O)CC[C@@]43C)[C@@H]2CC[C@@]2(C1)O[C@@H]1C[C@H](C)CN[C@H]1[C@H]2C [Patidegib]
Proportion of SEBs clinically resolved, observed, Mean ([1]; month 3): 7.72 | Proportion of SEBs clinically resolved, observed, Mean ([1]; month 6): 6.91 | Proportion of SEBs clinically resolved, observed, Mean ([1]; month 9): 9.13 | Proportion of SEBs clinically resolved, observed, Mean ([1]; month 12): 15.03 | Overall efficacy (in words) ([2]; Gorlin syndrome subjects who lacked the PTCH1 mutation (Examples 3 and 4)): produced no effect | Number of qualifying nSEBs, observed, Mean ([2]; month 3): 0.25 | Number of qualifying nSEBs, observed, Mean ([2]; month 6): 0.92 | Number of qualifying nSEBs, observed, Mean ([2]; month 9): 1.38 | Number of qualifying nSEBs, observed, Mean ([2]; month 12): 2.50 | Number of new BCCs excluding no longer suspicious BCCs, observed, Mean ([2]; month 3): 1.00 | Number of new BCCs excluding no longer suspicious BCCs, observed, Mean ([2]; month 6): 2.92 | Number of new BCCs excluding no longer suspicious BCCs, observed, Mean ([2]; month 9): 4.75 | Number of new BCCs excluding no longer suspicious BCCs, observed, Mean ([2]; month 12): 6.67
